Earlier results in patent publication US20050042289A1, “Tablets and methods for modified release of hydrophylic and other active agents” (Yamanouchi Pharma Technologies, Inc., priority 2003, published 2005).
Where a name gives a salt, the structure may show the parent alone. Read-outs that look alike come from different tables or passages of the source.

Conditions: in water at 25° C., hemihydrate

Question: For CC1OC2(CS1)CN1CCC2CC1 (racemic) [SNI-2011, (+/−)-cis-2-methylspiro [1,3-oxathiolane-5,3′-quinuclidine] hydrochloride, hemihydrate], which water solubility (listed as Cevimeline hydrochloride) is on record?
Answer: Its water solubility is 766 mg/mL.

Question: What about the water solubility (listed as methylspiro hydrochloride salt) of the same compound?
Answer: Its water solubility is roughly 800 mg/mL.

Question: What about the water solubility (hydrochloride) of the same compound?
Answer: The water solubility was “about 1,400 mg/ml”.
